Reference: patent US20250051727A1, “CARDIAC ORGANOID WITH INNER PART HAVING CAVITIES AND MULTIPLE LAYERS” (MEDIZINISCHE HOCHSCHULE HANNOVER, priority 2018, published 2025)

System: cardiac organoids (from hESC3 NKX2.5-eGFP)
Type: cell-based, human
Description: The process was performed for steps a) to n) as described with reference to FIG. 1. Incubation under cell culture conditions was in a 5% CO2 atmosphere at 37° C., using ultra-low attachment 96 well microtiter plates, Nunclon Sphera 96U-well plate available from Thermo Fisher Scientific, as the first vessels. The PSC were the human embryonic stem cell line hESC3 NKX2.5-eGFP. These exemplary PSC were genetically manipulated to express enhanced green fluorescent protein (eGFP) as a reporter under the control of the early cardiomyocyte-specific marker NKX2.5 to indicate early cardiomyocyte differentiation.
These PSC were cultivated on cell culture flasks (preferably Geltrex-coated) in E8 medium and detached from the flasks to provide the PSC in suspension. In step a), 5000 PSC suspended in 100 μL of the first medium, which was E8 medium (DMEM/F12, L-ascorbic acid-2-phosphate magnesium (64 mg/L), sodium selenium (14 μg/L), FGF2 (100 μg/L), insulin (19.4 mg/L), NaHCO3 (543 mg/L) and transferrin (10.7 mg/L), TGFβ1 (2 μg/L) or NODAL (100 μg/L), osmolarity adjusted to 340 mOsm at pH7.4) supplemented with 10 μM ROCK inhibitor (Y-27632, catalogue No. 72302, Stemcell Technologies)), were carefully dispensed into wells of the microtiter plate. Centrifugation of step b) was twice for 3 min at 300× g with the centrifuge cooled to 4° C. The centrifuged first vessels each contained one agglomerate on the U-shaped bottom and were carefully placed into a cell culture incubator in order to avoid disturbance of the cells localized at the U-shaped bottom. Incubation of step c) without agitation was for 24 h, resulting in the formation of an aggregate of the cells. For embedding in Matrigel (thawed on ice, 9.7 to 10.1 mg/mL protein content) as the exemplary hydrogel, 20 μL Matrigel were positioned in each well of a microtiter plate, the wells of which forming second vessels, which plate was of the same ultra-low attachment quality as the first. […]

O=C1CCC(N2C(=O)c3ccccc3C2=O)C(=O)N1 (stereo not drawn) [Thalidomide]
thickness of the myocardial ring compared to Controls (micrographs, FIG. 15): substantially thinner than in Controls | NKX2.5-eGFP-positive cells on the outer layer (micrographs, FIG. 15) (human, 80 μg/mL): absence of any NKX2.5-eGFP-positive cells on the outer layer | average diameter of the myocardial ring (human, 80 μg/mL): 165 μm
